Results as given in patent publication US20210038607A1, “OXADIAZOLYLTHIOPHENE DERIVATIVES USEFUL AS HISTONE DEACETYLASE INHIBITORS” (Karus Therapeutics Limited, priority 2018, published 2021).
Read-outs that look alike come from different tables or passages of the source.

Experiments:
Human HDAC11 = molecular target: T1, Human HDAC11 (Homo sapiens, UniProt Q96DB2); test: HDAC11 biochemical assay, class IIa-specific substrate; settings: read-out: HDAC Isoform IC50 (nM) 11
T1 construct: Human HDAC11 (full length); His (N); host or cells: baculovirus expression system
T1 sequence (Q96DB2 1-347): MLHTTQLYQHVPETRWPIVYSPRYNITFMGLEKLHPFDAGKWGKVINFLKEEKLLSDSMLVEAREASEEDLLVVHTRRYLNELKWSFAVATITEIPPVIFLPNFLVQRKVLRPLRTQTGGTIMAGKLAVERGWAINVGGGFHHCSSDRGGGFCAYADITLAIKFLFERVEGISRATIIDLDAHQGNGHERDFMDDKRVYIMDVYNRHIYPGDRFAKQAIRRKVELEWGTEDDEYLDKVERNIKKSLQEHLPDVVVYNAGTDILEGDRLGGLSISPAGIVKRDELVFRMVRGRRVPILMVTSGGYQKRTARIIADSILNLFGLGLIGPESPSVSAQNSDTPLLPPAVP
Protocol: (§1) Activity against all zinc-dependent HDACs 1 to 11 was assessed by using an acetylated AMC-labeled peptide substrate. The substrate RHKK(Ac)AMC was used for HDAC1, HDAC2, HDAC3, HDAC6 and HDAC10; the substrate used for HDAC8 was RHK(Ac)K(Ac)AMC. Activity against the class IIa HDACs (HDAC4, 5, 7, 9) and HDAC11 was determined using a class IIa-specific substrate, BOC-Lys(trifluoroacetyl)-AMC (“Trifluoroacetyl Lysine”; see Lahm et al, 2007, PNAS, 104, 17335-17340). All assays were based on the AMC-labeled substrate and developer combination.
(§2) The protocol involved a two-step reaction: first, the substrate with the acetylated lysine side chain is incubated with a sample containing HDAC activity, to produce the deacetylated products, which are then digested in the second step by the addition of developer to produce the fluorescent signal proportional to the amount of deacetylated substrates.
Human HDAC11 (full length) (GenBank Accession No. NM_024827) with N-terminal His tag, MW=42.9 kDa, expressed in baculovirus expression system.
(§3) Assay Buffer: 50 mM Tris-HCl, pH8.0, 137 mM NaCl, 2.7 mM KCl, 1 mM MgC2. Before use, 1 mg/mL BSA and DMSO are added.
HDAC11: 5 ng/ul HDAC11 and 50 μMHDAC substrate are in the reaction buffer with 1% DMSO final. Incubate for 30 minutes at 30° C.
(§4) Stage 1: Deacetylation of substrate by incubation of HDAC enzymes with compounds
(§5) Stage 2: Development by addition of Developer to digest the deacetylated substrate, and generate the fluorescent colour; Detection: 360/460 Ex/Em

[1] = molecular target: T2, Complex of human HDAC3 and human NCOR2 (Homo sapiens, UniProt O15379); test: HDAC3 biochemical assay, AMC-labeled peptide substrate; settings: read-out: HDAC Isoform IC50 (nM) 3
T2 construct: full length with C-terminal His tag, MW=49.7 kDa; His (C); host or cells: baculovirus expression system (co-expressed)
Protocol: as §1, §2
Complex of human HDAC3 (GenBank Accession No. NM_003883), full length with C-terminal His tag, MW=49.7 kDa, and human NCOR2 (amino acid 395-489) (GenBank Accession No. NM_006312), N-terminal GST tag, MW=37.6 kDa, co-expressed in baculovirus expression system.
as §3
HDAC3: 0.1 ng/ul HDAC3 and 50 μM HDAC substrate are in the reaction buffer with 1% DMSO final. Incubate for 1 hour at 30° C.
as §4, §5

Recombinant human HDAC6 = molecular target: T3, Recombinant human HDAC6 (Homo sapiens, UniProt Q9UBN7); test: HDAC6 biochemical assay, AMC-labeled peptide substrate
T3 construct: full length, MW=159 kDa; GST (N); host or cells: Sf9 insect cells (baculovirus)
T3 sequence (Q9UBN7 1-1215): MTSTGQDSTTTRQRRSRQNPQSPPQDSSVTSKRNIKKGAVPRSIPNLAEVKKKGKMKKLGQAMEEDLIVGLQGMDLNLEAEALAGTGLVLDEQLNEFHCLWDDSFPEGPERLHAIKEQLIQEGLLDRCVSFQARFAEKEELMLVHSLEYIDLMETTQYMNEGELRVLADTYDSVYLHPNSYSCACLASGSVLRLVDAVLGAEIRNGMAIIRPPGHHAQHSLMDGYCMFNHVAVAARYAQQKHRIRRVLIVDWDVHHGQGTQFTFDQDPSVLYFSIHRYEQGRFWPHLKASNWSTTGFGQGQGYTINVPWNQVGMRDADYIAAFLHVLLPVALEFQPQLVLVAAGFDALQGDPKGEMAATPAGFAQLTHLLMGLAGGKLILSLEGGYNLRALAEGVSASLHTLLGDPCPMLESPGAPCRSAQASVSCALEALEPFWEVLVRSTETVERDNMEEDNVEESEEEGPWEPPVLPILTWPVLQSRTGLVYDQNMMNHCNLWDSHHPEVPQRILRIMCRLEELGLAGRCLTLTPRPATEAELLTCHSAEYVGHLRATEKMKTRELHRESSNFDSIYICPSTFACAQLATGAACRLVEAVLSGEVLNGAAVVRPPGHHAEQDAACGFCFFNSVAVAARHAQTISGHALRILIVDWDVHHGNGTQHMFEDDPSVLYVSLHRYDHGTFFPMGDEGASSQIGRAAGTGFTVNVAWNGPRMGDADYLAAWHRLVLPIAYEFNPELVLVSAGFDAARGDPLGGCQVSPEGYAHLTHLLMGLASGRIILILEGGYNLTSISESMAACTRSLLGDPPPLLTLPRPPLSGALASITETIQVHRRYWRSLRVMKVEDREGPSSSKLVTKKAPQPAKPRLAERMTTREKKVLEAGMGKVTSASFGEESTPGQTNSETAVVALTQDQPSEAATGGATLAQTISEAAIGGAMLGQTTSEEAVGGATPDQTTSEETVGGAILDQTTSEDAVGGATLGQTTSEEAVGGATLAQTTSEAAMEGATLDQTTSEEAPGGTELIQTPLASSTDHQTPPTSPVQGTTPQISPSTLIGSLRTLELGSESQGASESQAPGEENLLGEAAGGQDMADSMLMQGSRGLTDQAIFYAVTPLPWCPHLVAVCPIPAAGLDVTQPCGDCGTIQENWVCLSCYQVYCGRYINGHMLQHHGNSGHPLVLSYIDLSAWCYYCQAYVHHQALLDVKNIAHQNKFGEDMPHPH
In short: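 Two-step fluorogenic read-out: enzyme deacetylates 50 μM RHKK(Ac)AMC for 1 h at 30° C in pH 8.0 Tris buffer with BSA and 1% DMSO, then developer cleavage gives signal at Ex 360/Em 460. Enzyme: 0.3 ng/ul recombinant full-length human HDAC6, GST-tagged, Sf9-expressed.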

[2] = HDAC6, read-out: HDAC Isoform IC50 (nM) 6

T2 sequence (O15379 whole entry, canonical isoform): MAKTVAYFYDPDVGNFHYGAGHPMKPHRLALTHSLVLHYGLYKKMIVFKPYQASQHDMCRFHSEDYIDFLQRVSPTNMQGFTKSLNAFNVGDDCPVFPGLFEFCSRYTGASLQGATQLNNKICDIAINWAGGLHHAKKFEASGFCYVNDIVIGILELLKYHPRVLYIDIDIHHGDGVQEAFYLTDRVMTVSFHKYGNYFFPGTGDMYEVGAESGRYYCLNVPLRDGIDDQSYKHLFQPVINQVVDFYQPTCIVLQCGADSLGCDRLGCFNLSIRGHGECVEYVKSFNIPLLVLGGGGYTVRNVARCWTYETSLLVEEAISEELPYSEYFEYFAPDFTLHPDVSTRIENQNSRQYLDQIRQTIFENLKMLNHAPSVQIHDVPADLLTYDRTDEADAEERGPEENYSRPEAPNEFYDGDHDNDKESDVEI
T2 sequence (Q9Y618 395-489 partner limits assumed): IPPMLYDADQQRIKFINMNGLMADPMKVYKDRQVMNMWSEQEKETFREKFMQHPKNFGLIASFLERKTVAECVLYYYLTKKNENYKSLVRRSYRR

IC50 (Human HDAC11) [nM] | IC50 [1] [nM] | IC50 (Recombinant human HDAC6; [2]) [nM] | IC50 (Recombinant human HDAC6; With assay conditions in the experimental section described herein, read-out: HDAC6 IC50) [nM] | SMILES
> 10000 | ≤ 10000 | ≤ 500 |  | O=C(c1ccc(N(Cc2ccc(-c3noc(C(F)(F)F)n3)s2)c2cnccn2)nn1)N1CCC12COC2 [Example FH, 6-{6-Oxa-1-azaspiro[3.3]heptane-1-carbonyl}-N-(pyrazin-2-yl)-N-({5-[5-(trifluoromethyl)-1,2,4-oxadiazol-3-yl]thiophen-2-yl}methyl)pyridazin-3-amine]
 |  | ≤ 500 |  | FC(F)(F)c1cnnc(N(Cc2ccc(-c3noc(C(F)(F)F)n3)s2)c2cccnn2)c1 [Example ER, N-(Pyridazin-3-yl)-5-(trifluoromethyl)-N-({5-[5-(trifluoromethyl)-1,2,4-oxadiazol-3-yl]thiophen-2-yl}methyl)pyridazin-3-amine]
> 10000 | > 10000 | ≤ 500 |  | O=C(c1cnnc(N(Cc2ccc(-c3noc(C(F)(F)F)n3)s2)c2cnccn2)c1)N1CCC(F)(F)CC1 [Example FY, 5-(4,4-Difluoropiperidine-1-carbonyl)-N-(pyrazin-2-yl)-N-({5-[5-(trifluoromethyl)-1,2,4-oxadiazol-3-yl]thiophen-2-yl}methyl)pyridazin-3-amine]
> 10000 | > 10000 | ≤ 1000 |  | FC(F)(F)c1nc(-c2ccc(CN(c3ccccn3)c3ccccn3)s2)no1 [Example U, N-(Pyridin-2-yl)-N-({5-[5-(trifluoromethyl)-1,2,4-oxadiazol-3-yl]thiophen-2-yl}methyl)pyridin-2-amine]
> 10000 | > 10000 | ≤ 500 | 99.1 | O=C(c1cnnc(N(Cc2ccc(-c3noc(C(F)(F)F)n3)s2)c2cnccn2)c1)N1CCOCC1 [Example EB, 5-(Morpholine-4-carbonyl)-N-(pyrazin-2-yl)-N-({5-[5-(trifluoromethyl)-1,2,4-oxadiazol-3-yl]thiophen-2-yl}methyl)pyridazin-3-amine]
> 10000 | ≤ 10000 | ≤ 500 |  | O=C(O)c1cnnc(N(Cc2sc(-c3noc(C(F)(F)F)n3)cc2F)c2cnccn2)c1 [Example FA, 6-[({3-fluoro-5-[5-(trifluoromethyl)-1,2,4-oxadiazol-3-yl]thiophen-2-yl}methyl)(pyrazin-2-yl)amino]pyridazine-4-carboxylic acid]
> 10000 | > 10000 | ≤ 500 |  | O=C(c1cnnc(N(Cc2ccc(-c3noc(C(F)(F)F)n3)s2)c2cnccn2)c1)N1CCC1 [Example FS, 5-(Azetidine-1-carbonyl)-N-(pyrazin-2-yl)-N-({5-[5-(trifluoromethyl)-1,2,4-oxadiazol-3-yl]thiophen-2-yl}methyl)pyridazin-3-amine]
> 10000 | ≤ 10000 | ≤ 500 |  | NC(=O)c1ccc(N(Cc2ccc(-c3noc(C(F)(F)F)n3)s2)c2cnccn2)nn1 [Example DQ, 6-[(Pyrazin-2-yl)({5-[5-(trifluoromethyl)-1,2,4-oxadiazol-3-yl]thiophen-2-yl}methyl)amino]pyridazine-3-carboxamide]
> 10000 | > 10000 | ≤ 500 |  | O=C(c1cnnc(N(Cc2ccc(-c3noc(C(F)(F)F)n3)s2)c2cnccn2)c1)N1CC2(COC2)C1 [Example FZ, 5-{2-Oxa-6-azaspiro[3.3]heptane-6-carbonyl}-N-(pyrazin-2-yl)-N-({5-[5-(trifluoromethyl)-1,2,4-oxadiazol-3-yl]thiophen-2-yl}methyl)pyridazin-3-amine]
> 10000 | > 10000 | ≤ 500 |  | Cc1nccnc1N(Cc1ccc(-c2noc(C(F)(F)F)n2)s1)c1cnccn1 [Example BE, 3-Methyl-N-(pyrazin-2-yl)-N-({5-[5-(trifluoromethyl)-1,2,4-oxadiazol-3-yl]thiophen-2-yl}methyl)pyrazin-2-amine]
> 10000 | > 10000 | ≤ 500 |  | FC(F)(F)c1nc(-c2ccc(CN(c3cnccn3)c3cc(-c4ccccn4)cnn3)s2)no1 [Example GM, N-(Pyrazin-2-yl)-5-(pyridin-2-yl)-N-({5-[5-(trifluoromethyl)-1,2,4-oxadiazol-3-yl]thiophen-2-yl}methyl)pyridazin-3-amine]
> 10000 | > 10000 | ≤ 500 |  | O=C(c1cnnc(N(Cc2ccc(-c3noc(C(F)(F)F)n3)s2)c2cnccn2)c1)N1C[C@@H]2C[C@H]1CO2 [Example FV, 5-[(1S,4S)-2-Oxa-5-azabicyclo[2.2.1]heptane-5-carbonyl]-N-(pyrazin-2-yl)-N-({5-[5-(trifluoromethyl)-1,2,4-oxadiazol-3-yl]thiophen-2-yl}methyl)pyridazin-3-amine]
> 10000 | > 10000 | ≤ 1000 |  | FC(F)(F)c1nc(-c2ccc(CN(c3cnccn3)c3cc(N4CCCC4)cnn3)s2)no1 [Example FQ, N-(Pyrazin-2-yl)-5-(pyrrolidin-1-yl)-N-({5-[5-(trifluoromethyl)-1,2,4-oxadiazol-3-yl]thiophen-2-yl}methyl)pyridazin-3-amine]
 |  | ≤ 500 |  | COc1cncc(N(Cc2ccc(-c3noc(C(F)(F)F)n3)s2)c2cc(C(F)(F)F)cnn2)n1 [Example EN, N-(6-Methoxypyrazin-2-yl)-5-(trifluoromethyl)-N-({5-[5-(trifluoromethyl)-1,2,4-oxadiazol-3-yl]thiophen-2-yl}methyl)pyridazin-3-amine]
 |  | ≤ 500 |  | FC(F)(F)c1cnnc(N(Cc2ccc(-c3noc(C(F)(F)F)n3)s2)c2cc(C(F)(F)F)cnn2)c1 [Example EU, 5-(Trifluoromethyl)-N-({5-[5-(trifluoromethyl)-1,2,4-oxadiazol-3-yl]thiophen-2-yl}methyl)-N-[5-(trifluoromethyl)pyridazin-3-yl]pyridazin-3-amine]
